Experimental data published in patent US20170266174A1, “Compositions and Methods for Extending Lifespan” (COLLABORATIVE MEDICINAL DEVELOPMENT LLC, priority 2014, published 2017).
“Also recorded” adds a separate entry of the source.

Legend:
C. elegans [1] = assay: SEC-ICP-MS (LC-ICP-MS) chromatographic distribution of iron in SIH-treated C. elegans; assay type: in vivo, Caenorhabditis elegans
Method: Samples were homogenized in TBS (pH 8.0) with added proteinase inhibitors (EDTA-free, Roche), then clarified by a 15 min centrifugation at 175,000 g, 4° C. The protein concentration of the supernatant was determined via UV absorbance (Nanodrop, ThermoScientific) and equivalent protein amounts were size-excluded using a Bio SEC-5 (4.6×300 mm, 5 μm, Agilent) column with 200 mM ammonium nitrate (trace analysis grade, Sigma) pH 8.0 buffer the flow rate was 0.4 mL/min at 30° C. The eluant from the column was directly connected to the ICP-MS for elemental detection as previously described (37).

C. elegans [2] = assay: Lifespan analysis of C. elegans treated with SIH; assay type: in vivo, Caenorhabditis elegans; settings: for median lifespan: 25° C., treated from adulthood onwards, control (0 μM SIH) 12 days
Method: The effects of genetic ablation of ftn-2 and ftn-1 on wild type was measured using established protocols(11, 38). For SIH treatment compound was dissolved in dimethyl sulfoxide (Sigma-Aldrich) then added to the molten NGM at 55° C. along with 50 μg/mL amplicillin (Sigma-Aldrich). Media containing equivalent vehicle alone (0.5% v/v DMSO) and ampicillin was used for comparison. SIH data was collected using the temperature sensitive-sterile strain TJ1060. All life span assays were conducted at 25° C. following adulthood.
Kaplan-Maier survival curves were generated and compared via non-parametric Log rank tests (Prism v5.0d, Graphpad Software).

[3] = tested on: lysates of young adult wild type C. elegans; assay: Ex vivo ROS production detected by DCF fluorescence from C. elegans lysates; assay type: biochemical, Caenorhabditis elegans; settings: 50 μM DTPA added to lysate (10 μg) of young adult wild type
Method: 2′,7′-dichlorodihydrofluorescein diacetate (DCFH-DA) at 10 μM was used as a fluorescent probe for reactive oxygen species (ROS) detection in vivo using standard protocols (33). DCFH-DA enters and accumulates in the intestinal cells, where it is oxidized by several ROS (including hydroxyl radicals) to form the fluorophore DCF(34). Analysis of fluorescence rate increase was performed on samples sonicated in 1×TBS, pH 7.4 and recovered as the supernatant from a 100,000 g centrifugation at 4° C. Total protein concentration was determined by a Nanodrop spectrophotometer (Thermo Scientific). […] Fluorescence in 8 replicate wells was quantitated (Ex: 485 nm, Em: 535 nm using a 495 nm cut-off) by a FlexStation (Molecular Devices) plate reader, using 30 reads every minute for 1 h at medium PMT setting. Values from lysate-free (negative) controls were subtracted and the fluorescence data was then base line corrected. A linear regression fitted from 20-40 minutes and the slopes were normalized against 4-day old wild type and plotted (Prism v5.0d, Graphpad Software).

O=C(NN=Cc1ccccc1O)c1ccncc1 [SIH, salicylaldehyde isonicotinoyl hydrazone]
Ferritin-bound iron (Peak #2) effect (C. elegans [1]; 250 μM SIH, 10 day old, integration of peak area): reduced; also recorded: decreased
LMW-iron (Peak #3) effect in words (C. elegans [1]; 250 μM SIH, 10 day old, integration of peak area from triplicate data): reduced; also recorded: lowered; also recorded: attenuated
HMW-iron (Peak #1) effect (C. elegans [1]; 250 μM SIH, C. elegans aged to 10 days): unaffected
LMW-iron (Peak #3) normalized peak area change (C. elegans [1]; 250 μM SIH, C. elegans aged to 10 days, versus control): −43%
total soluble zinc effect (C. elegans [1]; SIH treatment (data not shown)): unaffected
dose-dependency of lifespan extension (C. elegans [2]; 0, 100, 250 μM SIH): dose-dependency
median lifespan (C. elegans [2]; 100 μM SIH): 17 days
median lifespan (C. elegans [2]; 250 μM SIH): 21 days
increase in lifespan (C. elegans [2]; control versus 250 μM SIH median lifespan): 75%

diethylenetriamine penta-acetic acid [DTPA]
ROS production (DCF fluorescence) effect [3]: abolished; also recorded: silenced
